Laboratory results taken from patent US8278263B2, “Method of regulating mammalian target-of-rapamycin activity by interaction between phospholipase D and raptor” (Postech Academy-Industry Foundation, priority 2006, dated 2012).

How the values were obtained:
[1] = tested on: interaction between PLD2 and mTOR; assay: Co-IP with anti-mTOR antibody of PLD2 and mTOR complex; format: cell-based, human; monkey
Method: (§1) After harvesting COS7 cells, total extracts were prepared by brief sonication in ice-cold lysis buffer (40 mM HEPES pH7.5, 120 mM NaCl, 1 mM EDTA, 10 mM pyrophosphate, 10 mM glycerophosphate, 50 mM NaF, 1.5 mM Na3VO4, 0.5% CHAPS, 1 mM PMSF, protease inhibitor cocktails). Clarified extracts were mixed with 2 μg of the respective antibodies. Then protein A-Sepharose beads were added to isolate the antibody complex. After four washings with lysis buffer, the final immunoprecipitates were washed once with wash buffer (50 mM HEPES pH7.5, 150 mM NaCl), and then subjected to SDS-PAGE using Hyperfilm (Amersham Pharmacia Biotech), nitrocellulose membranes (Watmann), Power supply (Amersham Pharmacia Biotech), Electrophoretic Transfer unit (Hoefer Scientific Instruments), and ECL™ (Amersham Pharmacia Biotech).

[2] = tested on: phosphorylations of S6K1 and 4EBP1; assay: Phosphorylation of S6K1 and 4EBP1 after isozyme-specific PLD siRNA knockdown (western blot); format: cell-based, human; monkey
Description: Pairs of 21-nucleotide sense and antisense RNA oligomers were synthesized and annealed by Dharmacon Research, Inc. (Lafayette, Colo.). The oligonucleotides used for PLD2 were: sense, 5′-AAGAGGUGGCUGGUGGUGAAG-3′ (SEQ ID NO: 9) and antisense, 5′-CUUCACCACCAGCCACCUCUU-3′ (SEQ ID NO: 10), which correspond to human PLD2 coding nucleotides 703-723. The oligonucleotides used for PLD1 were: sense, 5′-AAGGUGGGACGACAAUGAGCA-3′ (SEQ ID NO: 11), and antisense, 5′-UGCUCAUUGUCGUCCCACCUU-3′ (SEQ ID NO: 12), which correspond to human PLD1a coding nucleotides 1455-1475. All siRNA sequences were subjected to BLAST in the NCBI database and complete matches were only found for PLD2 sequences. Luciferase GL2 duplex was purchased from Dharmacon Research, Inc. and was used as a negative control. For add-back experiment for PLD2 silencing, three residues of human PLD2 cDNA (nucleotides 703-723 of PLD2; […]; SEQ ID NO: 13) are substituted to […] for addback mutants of PLD2^wt (Kim, J. H., Kim, J. H., Ohba, M., Suh, P. G., Ryu, S. H. Mol. Cell. Biol. 25 (2005) 3194, which is hereby incorporated by reference). This mutation is silencing mutations. This gene is subcloned into mammalian expression vector pcDNA3.1 (Invitrogen) and digested with restriction enzymes KpnI and XbaI. These mutations are confirmed through nucleotide sequence analysis. […]

phosphorylation of S6K1 = assay: Mitogen-dependent phosphorylation of S6K1 in siRNA-transfected COS7 cells; format: cell-based, monkey; details: siRNA knockdown, 20% BCS
Method: The indicated siRNAs were transfected into COS7 cells, and 36 hrs later, cells were deprived of serum for 24 hrs. 20% of BCS was then treated and the resulting lysates were subjected to SDS-PAGE.

S6K1 = tested on: S6K1
Method: Until now, the function of PLD2 in nutrient signaling has not been proposed. To this end, the importance of PLD2 in nutrient signaling was tested. […] PLD2^wt was transfected and allowed to express for 24 hr.

mTOR-raptor interaction = assay: Co-IP analysis of the mTOR-raptor interaction; format: cell-based, monkey; details: COS7 cells
S6K1 phosphorylation = assay: Exogenous PA rescue of mTOR signaling in PLD knocked-down cells (SDS-PAGE/western blot); format: cell-based, human; monkey
Method: Next, another experiment was conducted to test whether exogenous PA can rescue mTOR signal abrogation in PLD2-knocked-down cells. HEK293 and COS7 cells were transfected with the indicated siRNAs using lipofectamine. After 36 hrs, cells were deprived of serum for 24 hrs. 100 μM of C-6 PA solubilized in DW was then treated for 30 min. Resulting lysates were subject to SDS-PAGE.
The inventor reasoned that if the role of PLD2 in mTOR activation is solely that of PA generation, then the exogenous addition of PA should completely rescue mTOR signaling despite PLD2 expression.

PLD2 = biological target: T1, PLD2 (Homo sapiens, UniProt O14939); assay: In vivo PLD assay (PBt formation) in response to nutrient levels; format: cell-based; details: PLD2wt transfected cells; leucine-free vs leucine-added media; 0.4% 1-butanol
T1 construct: showing a schematic view of PLD2 N-terminal deleted fragments versus whole PLD2; expressed in transfected cells
Method: In vivo PLD activity was assayed by measuring the formation of phosphatidyl-butanol as described in “Lee, J. S., Kim, J. H., Jang, I. H., Kim, H. S., Han, J. M., Kazlauskas, A., Yagaisawa, H., Suh, P. G., Ryu, S. H. J. Cell Sci. 118 (2005) 4405,” which is hereby incorporated by reference. In brief, cells were loaded with [^3H]myristic acid (2 μCi/ml) for 8 hrs and then washed twice with DMEM. Labeled cells were incubated with 0.4% butanol for 10 min to measure basal PLD activity. Total lipids were extracted with 1.2 ml of methanol:1 M NaCl:chloroform (1:1:1 by volume) and then separated by thin-layer chromatography on silica gel plates. The amount of [^3H]phosphatidyl-butanol formed was expressed as a percentage of total [^3H]lipid to account for cell labeling efficiency differences.

[3] = tested on: binding between PLD2 and raptor; assay: Co-IP of HA-raptor/PLD2 in HEK293 cells after leucine treatment; format: cell-based, human; details: HA-raptorwt/PLD2wt transfected HEK293 cells; leucine treatment after leucine deprivation
Method: as §1
Either HA-raptor^wt/PLD2^wt was transfected into HEK293 cells, and the cells were subjected to leucine deprivation. Co-IP after leucine treatment was followed by Western blot analysis. Importantly, the interaction between Rheb and PLD2 was also regulated by nutrient levels such that this interaction was stabilized under high nutrient conditions and weakened under low nutrient conditions, which allowed a nutrient-dependent mTOR complex composed of mTOR, raptor, PLD2, and Rheb to be identified.

T1 sequence (O14939 whole entry R172C/T577I, the tested form may be a part): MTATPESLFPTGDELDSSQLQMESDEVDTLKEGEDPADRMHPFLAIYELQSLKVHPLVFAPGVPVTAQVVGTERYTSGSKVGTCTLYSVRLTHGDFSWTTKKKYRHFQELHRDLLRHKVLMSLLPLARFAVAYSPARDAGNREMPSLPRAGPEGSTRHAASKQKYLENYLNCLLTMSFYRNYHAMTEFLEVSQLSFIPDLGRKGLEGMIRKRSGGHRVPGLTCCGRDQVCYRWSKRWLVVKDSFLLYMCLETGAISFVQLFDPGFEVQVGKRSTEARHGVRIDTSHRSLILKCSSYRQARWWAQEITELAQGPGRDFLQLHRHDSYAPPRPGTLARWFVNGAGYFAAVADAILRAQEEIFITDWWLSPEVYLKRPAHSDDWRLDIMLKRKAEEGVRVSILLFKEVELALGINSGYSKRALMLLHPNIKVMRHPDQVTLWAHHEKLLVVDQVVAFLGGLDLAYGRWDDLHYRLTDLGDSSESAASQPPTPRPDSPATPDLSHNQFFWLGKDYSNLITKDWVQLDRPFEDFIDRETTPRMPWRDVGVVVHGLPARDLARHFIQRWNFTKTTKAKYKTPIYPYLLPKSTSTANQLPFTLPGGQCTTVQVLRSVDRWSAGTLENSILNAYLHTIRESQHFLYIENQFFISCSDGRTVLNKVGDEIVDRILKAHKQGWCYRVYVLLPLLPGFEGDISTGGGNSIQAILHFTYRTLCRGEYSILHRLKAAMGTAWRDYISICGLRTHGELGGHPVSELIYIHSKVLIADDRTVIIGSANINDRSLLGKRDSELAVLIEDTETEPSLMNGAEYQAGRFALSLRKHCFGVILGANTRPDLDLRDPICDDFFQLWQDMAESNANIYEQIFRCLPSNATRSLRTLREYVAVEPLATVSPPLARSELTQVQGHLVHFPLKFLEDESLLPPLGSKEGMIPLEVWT

CO[C@H]1C[C@@H]2CC[C@@H](C)[C@@](O)(O2)C(=O)C(=O)N2CCCC[C@H]2C(=O)O[C@H]([C@H](C)C[C@@H]2CC[C@@H](O)[C@H](OC)C2)CC(=O)[C@H](C)/C=C(\C)[C@@H](O)[C@@H](OC)C(=O)[C@H](C)C[C@H](C)/C=C/C=C/C=C/1C [rapamycin]
effect on the interaction between PLD2 and mTOR ([1]; mTOR inhibition by rapamycin): no effect

PLD1 siRNA: 21-nt siRNA duplex SEQ ID NO: 11/12, human PLD1a coding nucleotides 1455-1475 (chain 1 AAGGUGGGACGACAAUGAGCA; chain 2 UGCUCAUUGUCGUCCCACCUU; RNA, backbone not given here)
silencing effect on mTOR signaling ([2]; siRNA silencing): modest
mitogen-dependent phosphorylation of S6K1 (phosphorylation of S6K1): only a modest effect

1-butanol
stimulatory effect of leucine on S6K1 (S6K1): significantly reduced
modulation of the mTOR-raptor interaction (mTOR-raptor interaction): neither reducing PA generation with 1-butanol nor adding PA modulates

CCCCCC(=O)OC[C@H](COP(=O)(O)O)OC(=O)CCCCC [PA, C-6 phosphatidic acid]
modulation of the mTOR-raptor interaction (mTOR-raptor interaction): neither reducing PA generation with 1-butanol nor adding PA modulates
rescue of silencing effect of PLD1 on mTOR signaling (S6K1 phosphorylation; PLD1 silencing, PA treatment): completely rescued
S6K1 phosphorylation triggered by exogenous PA (S6K1 phosphorylation; PLD2-knocked-down HEK293 and COS7 cells, 100 μM C-6 PA, 30 min): could not trigger S6K1 phosphorylation
rescue of PLD2 effect on mTOR signaling (S6K1 phosphorylation; PLD2 silencing, exogenous PA treatment): not rescued

CC(C)C[C@H](N)C(=O)O [leucine]
PLD2 activity (PBt formation) (PLD2): reversibly regulated
binding between PLD2 and raptor [3]: enhanced binding
interaction between endogenous PLD2 and endogenous mTOR complex ([1]; leucine treatment in leucine-deprived COS7 and HEK293 cells): increased

PLD2 siRNA: 21-nt siRNA duplex SEQ ID NO: 9/10, human PLD2 coding nucleotides 703-723 (chain 1 AAGAGGUGGCUGGUGGUGAAG; chain 2 CUUCACCACCAGCCACCUCUU; RNA, backbone not given here)
phosphorylations of S6K1 and 4EBP1 ([2]; siRNA knockdown, HEK293, OVCAR-3 and COS7 cells, serum-deprived 24 hrs, compared with PLD1 knockdown): dramatically reduced
mitogen-dependent phosphorylation of S6K1 (phosphorylation of S6K1): profoundly reduced
